Assay results reported in patent publication US10562891B2, “Quinazolinones as PARP14 inhibitors” (Ribon Therapeutics Inc., priority 2017, dated 2020).
Where a name gives a salt, the structure may show the parent alone.

What follows are compounds tested against catalytic domain of human PARP14 (Homo sapiens (Human), UniProt Q460N5) (assay: Enzymatic assay for inhibition of PARP14 (DELFIA, auto-modification with biotin-NAD)). Conditions: auto-modification of PARP14 by biotin-NAD, 50 nM PARP14, 3 μM biotin-NAD.
Format: biochemical
Method in brief: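 DELFIA auto-modification read-out: europium-streptavidin bound to biotin-NAD incorporated onto nickel-captured His-TEV PARP14 catalytic domain. Compound preincubated 30 min, then 50 nM enzyme with 3 μM biotin-NAD reacted 3 h, all at 25 °C, pH 8, then NAD quench. Percent inhibition normalized to rucaparib/DMSO wells, fitted (4- or 3-parameter) for IC50.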

catalytic domain of human PARP14, sequence (Q460N5 1611-1801): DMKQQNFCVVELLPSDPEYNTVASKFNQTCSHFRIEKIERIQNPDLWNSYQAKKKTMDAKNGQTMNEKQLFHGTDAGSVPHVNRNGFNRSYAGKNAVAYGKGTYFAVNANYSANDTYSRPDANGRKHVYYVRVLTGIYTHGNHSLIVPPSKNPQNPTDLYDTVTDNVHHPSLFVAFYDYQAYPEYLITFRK

Question: `Cc1cccc2c(=O)[nH]c(CSC3CCC(CN)CC3)nc12` (stereo not shown) [Example 64, 2-(((4-(Aminomethyl)cyclohexyl)thio)methyl)-8-methylquinazolin-4(3H)-one Trifluoroacetate] was tested. Which IC50 did it give?
Answer: The IC50 was under 1000 nM.

Question: For `Cc1cccc2c(=O)[nH]c(CS[C@H]3CC[C@@H](CN)CC3)nc12` [Example 65, 2-(((cis-4-(Aminomethyl)cyclohexyl)thio)methyl)-8-methylquinazolin-4(3H)-one Trifluoroacetate], which IC50 is on record?
Answer: Its IC50 is 1000 to 10000 nM.

Question: `Cc1cccc2c(=O)[nH]c(CS[C@H]3CC[C@H](CN)CC3)nc12` [Example 66, 2-(((trans-4-(Aminomethyl)cyclohexyl)thio)methyl)-8-methylquinazolin-4(3H)-one Trifluoroacetate] was tested. Which IC50 did it give?
Answer: Its IC50 is under 1000 nM.

Question: For `Cc1cccc2c(=O)[nH]c(CSC3CCC(CN(C)C)CC3)nc12` (stereo not shown) [Example 67, 2-(((4-((Dimethylamino)methyl)cyclohexyl)thio)methyl)-8-methylquinazolin-4(3H)-one trifluoroacetate], which IC50 is on record?
Answer: The IC50 was under 1000 nM.

Question: `Cc1cccc2c(=O)[nH]c(CS[C@H]3CC[C@@H](CN(C)C)CC3)nc12` [Example 68, 2-(((cis-4-((Dimethylamino)methyl)cyclohexyl)thio)methyl)-8-methyl quinazolin-4(3H)-one Trifluoroacetate] was tested. Which IC50 did it give?
Answer: Its IC50 is 1000 to 10000 nM.

Question: With `Cc1cccc2c(=O)[nH]c(CS[C@H]3CC[C@H](CN(C)C)CC3)nc12` [Example 69, 2-(((trans-4-((Dimethylamino)methyl)cyclohexyl)thio)methyl)-8-methyl quinazolin-4(3H)-one Trifluoroacetate] as the compound, how does the IC50 read?
Answer: The IC50 was under 1000 nM.

Question: Which IC50 does the source give for `CNC[C@H]1CC[C@H](SCc2nc3c(C)cccc3c(=O)[nH]2)CC1` [Example 73, 8-Methyl-2-(((trans-4-((methylamino)methyl)cyclohexyl)thio)methyl) quinazolin-4(3H)-one] here?
Answer: Its IC50 is under 1000 nM.

Question: With `Nc1ccc2c(=O)[nH]c(CSC3CCOCC3)nc2c1` [Example 74, 7-Amino-2-(((tetrahydro-2H-pyran-4-yl)thio)methyl)quinazolin-4(3H)-one] as the compound, how does the IC50 read?
Answer: Its IC50 is over 10000 nM.

Question: `CC(=O)Nc1ccc2c(=O)[nH]c(CSC3CCOCC3)nc2c1` [Example 75, N-(4-Oxo-2-(((tetrahydro-2H-pyran-4-yl)thio)methyl)-3,4-dihydroquinazolin-7-yl)acetamide] was tested. Which IC50 did it give?
Answer: Its IC50 is over 10000 nM.

Question: Which IC50 does the source give for `O=C(Nc1ccc2c(=O)[nH]c(CSC3CCOCC3)nc2c1)c1ccccc1` [Example 76, N-(4-Oxo-2-(((tetrahydro-2H-pyran-4-yl)thio)methyl)-3,4-dihydroquinazolin-7-yl)benzamide] here?
Answer: Its IC50 is 1000 to 10000 nM.

Question: For `CNC(=O)c1ccc2c(=O)[nH]c(CSC3CCOCC3)nc2c1` [Example 77, N-Methyl-4-oxo-2-(((tetrahydro-2H-pyran-4-yl)thio)methyl)-3,4-dihydro Quinazoline-7-carboxamide], which IC50 is on record?
Answer: The IC50 was over 10000 nM.

Question: For `O=C(Nc1ccccc1)c1ccc2c(=O)[nH]c(CSC3CCOCC3)nc2c1` [Example 78, 4-Oxo-N-phenyl-2-(((tetrahydro-2H-pyran-4-yl)thio)methyl)-3,4-dihydro Quinazoline-7-carboxamide], which IC50 is on record?
Answer: Its IC50 is over 10000 nM.

Question: `O=c1[nH]c(CSC2CCOCC2)nc2cc(Nc3ccccc3)ccc12` [Example 79, 7-(Phenylamino)-2-(((tetrahydro-2H-pyran-4-yl)thio)methyl)quinazolin-4(3H)-one] was tested. Which IC50 did it give?
Answer: Its IC50 is under 1000 nM.

Question: `O=c1[nH]c(CSC2CCOCC2)nc2cc(Nc3cccnc3)ccc12` [Example 80, 7-(Pyridin-3-ylamino)-2-(((tetrahydro-2H-pyran-4-yl)thio)methyl)quinazolin-4(3H)-one] was tested. Which IC50 did it give?
Answer: Its IC50 is under 1000 nM.

Question: Which IC50 does the source give for `O=c1[nH]c(CSC2CCOCC2)nc2cc(Nc3ccccn3)ccc12` [Example 81, 7-(Pyridin-2-ylamino)-2-(((tetrahydro-2H-pyran-4-yl)thio)methyl)quinazolin-4(3H)-one] here?
Answer: The IC50 was 1000 to 10000 nM.

Question: Which IC50 does the source give for `COc1ccc(Nc2ccc3c(=O)[nH]c(CSC4CCOCC4)nc3c2)cc1` [Example 82, 7-((4-Methoxyphenyl)amino)-2-(((tetrahydro-2H-pyran-4-yl)thio)methyl)quinazolin-4(3H)-one] here?
Answer: Its IC50 is 1000 to 10000 nM.

Question: `COc1cccc(Nc2ccc3c(=O)[nH]c(CSC4CCOCC4)nc3c2)c1` [Example 83, 7-((3-Methoxyphenyl)amino)-2-(((tetrahydro-2H-pyran-4-yl)thio)methyl)quinazolin-4(3H)-one] was tested. Which IC50 did it give?
Answer: The IC50 was 1000 to 10000 nM.

Question: How did the IC50 turn out when `COc1ccccc1Nc1ccc2c(=O)[nH]c(CSC3CCOCC3)nc2c1` [Example 84, 7-((2-Methoxyphenyl)amino)-2-(((tetrahydro-2H-pyran-4-yl)thio)methyl)quinazolin-4(3H)-one] was run?
Answer: The IC50 was 1000 to 10000 nM.

Question: Which IC50 does the source give for `O=c1[nH]c(CSC2CCOCC2)nc2cc(Nc3cnccn3)ccc12` [Example 85, 7-(Pyrazin-2-ylamino)-2-(((tetrahydro-2H-pyran-4-yl)thio)methyl)quinazolin-4(3H)-one] here?
Answer: Its IC50 is 1000 to 10000 nM.

Question: How did the IC50 turn out when `O=c1[nH]c(CSC2CCOCC2)nc2cc(Nc3ccncc3)ccc12` [Example 86, 7-(Pyridin-4-ylamino)-2-(((tetrahydro-2H-pyran-4-yl)thio)methyl)quinazolin-4(3H)-one] was run?
Answer: The IC50 was 1000 to 10000 nM.

Question: `O=c1[nH]c(CSC2CCOCC2)nc2cc(Nc3cncnc3)ccc12` [Example 87, 7-(Pyrimidin-5-ylamino)-2-(((tetrahydro-2H-pyran-4-yl)thio)methyl)quinazolin-4(3H)-one] was tested. Which IC50 did it give?
Answer: The IC50 was 1000 to 10000 nM.

Question: Which IC50 does the source give for `Cn1ccnc1Nc1ccc2c(=O)[nH]c(CSC3CCOCC3)nc2c1` [Example 88, 7-((1-Methyl-1H-imidazol-2-yl)amino)-2-(((tetrahydro-2H-pyran-4-yl)thio)methyl)quinazolin-4(3H)-one] here?
Answer: The IC50 was over 10000 nM.

Question: `O=c1[nH]c(CSC2CCOCC2)nc2cc(Nc3nccs3)ccc12` [Example 89, 2-(((Tetrahydro-2H-pyran-4-yl)thio)methyl)-7-(thiazol-2-ylamino)quinazolin-4(3H)-one] was tested. Which IC50 did it give?
Answer: Its IC50 is 1000 to 10000 nM.

Question: `Cc1ncccc1Nc1ccc2c(=O)[nH]c(CSC3CCOCC3)nc2c1` [Example 90, 7-((2-Methylpyridin-3-yl)amino)-2-(((tetrahydro-2H-pyran-4-yl)thio)methyl)quinazolin-4(3H)-one] was tested. Which IC50 did it give?
Answer: The IC50 was 1000 to 10000 nM.

Question: Which IC50 does the source give for `Cc1ccncc1Nc1ccc2c(=O)[nH]c(CSC3CCOCC3)nc2c1` [Example 91, 7-((4-Methylpyridin-3-yl)amino)-2-(((tetrahydro-2H-pyran-4-yl)thio)methyl)quinazolin-4(3H)-one] here?
Answer: The IC50 was 1000 to 10000 nM.

Question: How did the IC50 turn out when `Cc1cncc(Nc2ccc3c(=O)[nH]c(CSC4CCOCC4)nc3c2)c1` [Example 92, 7-((5-Methylpyridin-3-yl)amino)-2-(((tetrahydro-2H-pyran-4-yl)thio)methyl)quinazolin-4(3H)-one] was run?
Answer: Its IC50 is 1000 to 10000 nM.

Question: For `Nc1cnn(-c2ccc3c(=O)[nH]c(CSC4CCOCC4)nc3c2)c1` [Example 93, 7-(4-Amino-1H-pyrazol-1-yl)-2-(((tetrahydro-2H-pyran-4-yl)thio)methyl) quinazolin-4(3H)-one Trifluoroacetate], which IC50 is on record?
Answer: The IC50 was over 10000 nM.

Question: `O=c1[nH]c(CSC2CCOCC2)nc2cc(Nc3ccon3)ccc12` [Example 94, 7-(Isoxazol-3-ylamino)-2-(((tetrahydro-2H-pyran-4-yl)thio)methyl)quinazolin-4(3H)-one] was tested. Which IC50 did it give?
Answer: The IC50 was under 1000 nM.

Question: For `Cc1c(Nc2ccccc2)ccc2c(=O)[nH]c(CSC3CCOCC3)nc12` [Example 95, 8-Methyl-7-(phenylamino)-2-(((tetrahydro-2H-pyran-4-yl)thio)methyl) quinazolin-4(3H)-one], which IC50 is on record?
Answer: Its IC50 is 1000 to 10000 nM.

Question: For `O=c1[nH]c(CSC2CCOCC2)nc2cc(OCc3ccccc3)ccc12` [Example 96, 7-(Benzyloxy)-2-(((tetrahydro-2H-pyran-4-yl)thio)methyl)quinazolin-4(3H)-one], which IC50 is on record?
Answer: Its IC50 is 1000 to 10000 nM.

Question: With `O=c1[nH]c(CSC2CCC(O)CC2)nc2cc(Nc3ccccc3)ccc12` (stereo not shown) [Example 97, 2-(((4-Hydroxycyclohexyl)thio)methyl)-7-(phenylamino)quinazolin-4(3H)-one] as the compound, how does the IC50 read?
Answer: The IC50 was 1000 to 10000 nM.

Question: Which IC50 does the source give for `O=c1[nH]c(CS[C@H]2CC[C@H](O)CC2)nc2cc(Nc3ccccc3)ccc12` [Example 98, 2-(((trans-4-Hydroxycyclohexyl)thio)methyl)-7-(phenylamino)quinazolin-4(3H)-one] here?
Answer: Its IC50 is under 1000 nM.

Question: How did the IC50 turn out when `O=c1[nH]c(CS[C@H]2CC[C@@H](O)CC2)nc2cc(Nc3ccccc3)ccc12` [Example 99, 2-(((cis-4-Hydroxycyclohexyl)thio)methyl)-7-(phenylamino)quinazolin-4(3H)-one] was run?
Answer: Its IC50 is 1000 to 10000 nM.

Question: `O=c1[nH]c(CS[C@H]2CC[C@@H](O)CC2)nc2cc(Nc3cccnc3)ccc12` [Example 100, 2-(((cis-4-Hydroxycyclohexyl)thio)methyl)-7-(pyridin-3-ylamino)quinazolin-4(3H)-one] was tested. Which IC50 did it give?
Answer: The IC50 was under 1000 nM.

Question: With `O=c1[nH]c(CS[C@H]2CC[C@H](O)CC2)nc2cc(Nc3cccnc3)ccc12` [Example 101, 2-(((trans-4-Hydroxycyclohexyl)thio)methyl)-7-(pyridin-3-ylamino)quinazolin-4(3H)-one] as the compound, how does the IC50 read?
Answer: Its IC50 is under 1000 nM.

Question: For `O=c1[nH]c(CS[C@H]2CC[C@H](O)CC2)nc2cc(NC3CCCC3)ccc12` [Example 102, 7-(Cyclopentylamino)-2-(((trans-4-hydroxycyclohexyl)thio)methyl) quinazolin-4(3H)-one], which IC50 is on record?
Answer: Its IC50 is under 1000 nM.

Question: For `O=c1[nH]c(CS[C@H]2CC[C@@H](O)CC2)nc2cc(NC3CCCC3)ccc12` [Example 103, 7-(Cyclopentylamino)-2-(((cis-4-hydroxycyclohexyl)thio)methyl) quinazolin-4(3H)-one], which IC50 is on record?
Answer: Its IC50 is under 1000 nM.

Question: Which IC50 does the source give for `O=c1[nH]c(CS[C@H]2CC[C@H](CO)CC2)nc2cc(Nc3ccccc3)ccc12` [Example 104, 2-(((trans-4-(Hydroxymethyl)cyclohexyl)thio)methyl)-7-(phenylamino) quinazolin-4(3H)-one] here?
Answer: The IC50 was 1000 to 10000 nM.

Question: Which IC50 does the source give for `O=c1[nH]c(CS[C@H]2CC[C@@H](CO)CC2)nc2cc(Nc3ccccc3)ccc12` [Example 105, 2-(((cis-4-(Hydroxymethyl)cyclohexyl)thio)methyl)-7-(phenylamino) quinazolin-4(3H)-one] here?
Answer: The IC50 was under 1000 nM.

Question: `O=c1[nH]c(CS[C@H]2CC[C@@H](CO)CC2)nc2cc(Nc3cccnc3)ccc12` [Example 106, 2-(((cis-4-(Hydroxymethyl)cyclohexyl)thio)methyl)-7-(pyridin-3-ylamino) quinazolin-4(3H)-one] was tested. Which IC50 did it give?
Answer: The IC50 was 1000 to 10000 nM.
